Measurements: patent US6656927B1, “Ip3 receptor ligands” (Daiichi Pharmaceutical., Ltd., priority 1999, dated 2003)

Legend:
[1] = target: T1, IP3 binding domain (IBD, amino acid residues 1-885) of human IP3 receptor type 1 (Homo sapiens, UniProt Q14643); assay: Surface plasmon resonance competitive binding assay on Compound 1-immobilized sensor tip; settings: for Kd: SPR competitive assay, Compound 2b re-assayed at IBD 1.76 nM; for Kd / binding of IBD to a Compound 1-immobilized tip: IBD 52.8 nM; for binding of IBD to a Compound 1-immobilized tip: competitive assay, FIG. 1B; for affinity relative to that of IP3: ratio of affinity to IBD versus IP3 (Table 1); for non-specific binding to the IP3 receptor in the competitive assay: IBD 1.76 nM, FIG. 1C
T1 construct: glutathione S-transferase (GST), joined by linker Leu-Val-Pro-Arg-Gly-Ser (N); His tag, joined by linker Leu-Val-Pro-Arg-Gly-Ser (C); made in house; host or cells: Escherichia coli BL-21 (DE3), vector pGEX2T
Source text: (1) Expression and Purification of Human IP3 Receptor Type 1
The IP3 binding domain (IBD, amino acid residues 1-885, Mignery, G. A., et al., EMBO J., 9, 3893, 1990) of human IP3 receptor type 1 (Yamada, N., et al., Biochem. J., 302, 781, 1994) was subcloned in pGEX2T (Amersham Pharmacia) for expression in bacteria. The N-terminus of IBD was fused to glutathione S-transferase using a linker sequence Leu-Val-Pro-Arg-Gly-Ser, whilst the C-terminus of IBD was labeled at His using a linker sequence Leu-Val-Pro-Arg-Gly-Ser. The protein was expressed in Escherichia coli BL-21 (DE3), and a recombinant protein was purified by using a resin on which Ni-NTA was immobilized (Amersham Pharmacia) and a HiTrap NHS-activated affinity column (Amersham Pharmacia) to which Compound 1 was bound. The purity of protein was calculated as 22% based on the result from SDS-PAGE.
(2) Measurement of Surface Plasmon Resonance
Surface plasmon resonance (SPR) was measured by using BIAcore 2000 (Amersham Pharmacia). After activation with NHS and EDC, 10 mM of Compound 1 in 100 mM borate buffer (pH 8.5) was bound to the surface of CM5 sensor tip, and inactivated with ethanolamine. In order to determine dissociation constants of IP3, Compound 1, Compound 2a, and Compound 2b, IBD purified beforehand was dissolved in a mobile phase buffer (10 mM HEPES, 150 mM NaCl, 3.4 mM EDTA and 0.005% Tween20, pH 7.4) together with each of the compounds. After each sample was injected, the tip surface was regenerated with 100 mM NaOH.
IBD bound to the tip in a concentration-dependent manner, however, non-specific binding with BSA (or glutathione S-transferase) was not observed. […] In order to determine affinity of IP3, Compound 1, Compound 2a and Compound 2b to IBD, a competitive assay was performed as follows. IBD (52.8 nM) was mixed with each of the aforementioned compounds at various concentrations. When the mixture was introduced onto the tip, a compound that competed with Compound 1 was […] (FIG. 1B). SPR obtained from this assay was applied to the equation to calculate dissociation constant (Kd) of each compound.
(3) Calculation of Dissociation Constants
For calculation of Kd of each compound, the resulting data plotted in FIGS. 1B and 1C were applied to the formula: 100[1−[X+Y+Kd−{X^2+2X (Kd−Y)+(Kd+Y)^2}^½]/2Y] wherein X and Y are a concentration of each compound and IBD concentration, respectively. […] Therefore, the IBD concentration was lowered to 1.76 nM, and the competitive assay for Compound 2b was performed again (FIG. 1C). The binding assay was carried out under a light condition and under a dark condition to verify that the binding was not affected by light.

[2] = test system: IP3 receptor; assay: Denaturation of the IP3 receptor by light irradiation: IP3-induced Ca2+ releasing activity in smooth muscle tissue specimen; settings: guinea pig portal vein smooth muscle, 1 μM compound, 1 μM IP3, FIG. 2C
Experimental: (1) Preparation of a Tissue Specimen
A strip of smooth muscle tissue prepared from a portal vein of male guinea pigs (weight 200-300 g) was fixed on a stainless steel wire to prepare a tissue specimen.
(2) Measurement of Ca^2+ Releasing Activity
The above specimen was incubated at 35° C. for 3.5 hours in a 40 μM solution of mag-fura-2 AM (Molecular Probes) as a Ca^2+ fluorescent indicator to have the mag-fura-2 AM taken up by the specimen. Subsequently, the specimen was incubated at 35° C. for 1.5 to 2 hours in a 40-60 μM solution of β-escin as a surfactant to remove the mag-fura-2 AM present other than in intracellular organelles.
The specimen was inserted into a glass capillary, and then initial change of fluorescence intensity ratio (fluorescence intensity at Ex. 340 nm, Em.480 nm/fluorescence intensity at Ex. 375 nm, Em. 480 nm, i.e., releasing rate), at addition of various solutions to the specimen, was fitted to an exponential curve to obtain a value as Ca^2+ releasing activity. As the fluorescence photometer, CAF-110 (JASCO) was used. […]
The tissue specimen prepared in the above (1) was added with 1 μM IP3, and its Ca^2+ releasing activity was measured (before irradiation). This specimen was removed from a fluorescence photometer after the measurement, and the inside of a capillary was filled with 1 μM solution of Compound 2b. […]

T1 sequence (Q14643 1-885 isoform Q14643-4): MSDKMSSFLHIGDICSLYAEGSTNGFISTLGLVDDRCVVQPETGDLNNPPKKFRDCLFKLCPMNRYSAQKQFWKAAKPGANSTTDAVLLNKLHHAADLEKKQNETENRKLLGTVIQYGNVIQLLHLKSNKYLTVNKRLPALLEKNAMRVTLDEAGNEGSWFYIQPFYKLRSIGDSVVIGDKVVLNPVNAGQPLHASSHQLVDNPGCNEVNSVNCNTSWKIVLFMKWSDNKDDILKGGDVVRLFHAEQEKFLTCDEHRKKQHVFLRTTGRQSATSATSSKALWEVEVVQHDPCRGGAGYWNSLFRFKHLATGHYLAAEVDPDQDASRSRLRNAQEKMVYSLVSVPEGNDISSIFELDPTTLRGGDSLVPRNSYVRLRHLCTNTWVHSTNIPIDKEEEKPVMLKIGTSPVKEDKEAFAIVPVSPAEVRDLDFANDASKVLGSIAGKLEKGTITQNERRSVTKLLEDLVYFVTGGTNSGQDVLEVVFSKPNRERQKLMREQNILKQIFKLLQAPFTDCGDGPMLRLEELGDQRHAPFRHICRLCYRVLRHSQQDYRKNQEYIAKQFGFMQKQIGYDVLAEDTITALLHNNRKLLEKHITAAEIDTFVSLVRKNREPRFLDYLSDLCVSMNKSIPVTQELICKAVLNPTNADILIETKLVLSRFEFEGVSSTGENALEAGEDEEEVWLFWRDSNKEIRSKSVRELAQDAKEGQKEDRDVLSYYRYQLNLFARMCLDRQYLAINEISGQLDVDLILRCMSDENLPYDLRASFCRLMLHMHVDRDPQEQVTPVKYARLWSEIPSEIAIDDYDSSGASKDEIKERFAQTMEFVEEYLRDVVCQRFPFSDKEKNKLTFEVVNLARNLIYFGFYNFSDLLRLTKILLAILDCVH

| Kd [1] | binding of IBD to a Compound 1-immobilized tip [1] | affinity relative to that of IP3 [1] | non-specific binding to the IP3 receptor in the competitive assay [1] | Ca2+ releasing activity induced by IP3, addition of compound only (no laser irradiation) [2] | Ca2+ releasing activity induced by IP3, addition of compound and laser irradiation ([2]; 635 nm laser 3 minutes) | Molecule |
| --- | --- | --- | --- | --- | --- | --- |
| 1100 nM | inhibited | about ⅙ | – | – | – | NCCCOP(=O)(O)O[C@@H]1[C@H](O)[C@H](O)[C@@H](OP(=O)(O)O)[C@H](OP(=O)(O)O)[C@H]1O [Compound 1] |
| 1.17 nM | inhibited | 167 fold | specifically bound to the IP3 receptor | not reduced | remarkably reduced | CN(C)c1ccc(C(=C2C=CC(=[N+](C)C)C=C2)c2ccc(C(=O)NCCCOP(=O)(O)O[C@@H]3[C@H](O)[C@H](O)[C@@H](OP(=O)(O)O)[C@H](OP(=O)(O)O)[C@H]3O)cc2)cc1 [Compound 2b] |
| – | – | – | non-specific binding was not observed | – | – | carboxymalachite green |
| 195 nM | inhibited | – | – | – | – | O=P(O)(O)O[C@@H]1[C@H](O)[C@H](O)[C@@H](OP(=O)(O)O)[C@H](OP(=O)(O)O)[C@H]1O [IP3, D-Myo-inositol-1,4,5-trisphosphate] |
